In the supplement of paper PMC10733146:

Legend:
Test in all cases: viability relative to DMSO control (fraction); higher = less drug effect (more viable cells)
Details in all cases: 48 h
ONO-4059 = compound: CC#CC(=O)N1CC[C@@H](n2c(=O)n(-c3ccc(Oc4ccccc4)cc3)c3c(N)ncnc32)C1 [ONO-4059]
Outline: (§1)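 Compounds were pre-plated at five concentrations, one well each, in 384-well plates, and primary mononuclear tumour cells were plated on them at 4 × 10^4 cells per well. The cells, fresh or cryopreserved, had been Ficoll-isolated from blood or bone marrow or taken from processed lymph node. After 48 h at 37 °C and 5% CO2 in RPMI-1640 with penicillin/streptomycin, L-glutamine and human serum, viability was read as CellTiter-Glo luminescence relative to the median of 16 inner DMSO wells.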

Ribociclib = compound: CN(C)C(=O)c1cc2cnc(Nc3ccc(N4CCNCC4)cn3)nc2n1C1CCCC1 [Ribociclib]
Outline: as §1

Tozasertib = compound: Cc1cc(Nc2cc(N3CCN(C)CC3)nc(Sc3ccc(NC(=O)C4CC4)cc3)n2)n[nH]1 [Tozasertib]
Outline: as §1

Imatinib = compound: Cc1ccc(NC(=O)c2ccc(CN3CCN(C)CC3)cc2)cc1Nc1nccc(-c2cccnc2)n1 [Imatinib]
Outline: as §1

Pralatrexate = compound: C#CCC(Cc1cnc2nc(N)nc(N)c2n1)c1ccc(C(=O)N[C@@H](CCC(=O)O)C(=O)O)cc1 [Pralatrexate]
Outline: as §1

[1] = compound: CC(C)(C)OC(=O)Nc1ccc(-c2cc(C(=O)NCCCCCCC(=O)NO)no2)cc1
Outline: as §1

Vemurafenib = compound: CCCS(=O)(=O)Nc1ccc(F)c(C(=O)c2c[nH]c3ncc(-c4ccc(Cl)cc4)cc23)c1F [Vemurafenib]
Outline: as §1

ERK5-IN-1 = compound: CCOc1cc(C(=O)N2CCC(N3CCN(C)CC3)CC2)ccc1Nc1ncc2c(n1)N(C1CCCC1)c1ccccc1C(=O)N2C [ERK5-IN-1]
Outline: as §1

BI6727 = compound: CC[C@@H]1C(=O)N(C)c2cnc(Nc3ccc(C(=O)N[C@H]4CC[C@H](N5CCN(CC6CC6)CC5)CC4)cc3OC)nc2N1C(C)C [BI6727]
Outline: as §1

Vincristine = compound: CC[C@]1(O)C[C@H]2CN(CCc3c([nH]c4ccccc34)[C@@](C(=O)OC)(c3cc4c(cc3OC)N(C=O)[C@H]3[C@@](O)(C(=O)OC)[C@H](OC(C)=O)[C@]5(CC)C=CCN6CC[C@]43[C@@H]65)C2)C1 [Vincristine]
Outline: as §1

Obatoclax mesylate = compound: COC1=CC(c2cc3ccccc3[nH]2)=N/C1=C\c1[nH]c(C)cc1C [Obatoclax mesylate]
Outline: as §1

MLN-120B = compound: COc1c(Cl)cc2c([nH]c3cnccc32)c1NC(=O)c1cccnc1C [MLN-120B]
Outline: as §1

Panobinostat = compound: Cc1[nH]c2ccccc2c1CCNCc1ccc(/C=C/C(=O)NO)cc1 [Panobinostat]
Outline: as §1

AZD7762 = compound: NC(=O)Nc1cc(-c2cccc(F)c2)sc1C(=O)N[C@H]1CCCNC1 [AZD7762]
Outline: as §1

Cladribine = compound: Nc1nc(Cl)nc2c1ncn2[C@H]1C[C@H](O)[C@@H](CO)O1 [Cladribine]
Outline: as §1

Vorinostat = compound: O=C(CCCCCCC(=O)Nc1ccccc1)NO [Vorinostat]
Outline: as §1

TMP269 = compound: O=C(NCC1(c2nc(-c3ccccc3)cs2)CCOCC1)c1cccc(-c2noc(C(F)(F)F)n2)c1 [TMP269]
Outline: as §1

Pentostatin = compound: OC[C@H]1O[C@@H](n2cnc3c2N=CNC[C@H]3O)C[C@@H]1O [Pentostatin]
Outline: as §1

Birinapant = compound: CC[C@H](NC(=O)[C@H](C)NC)C(=O)N1C[C@@H](O)C[C@H]1Cc1c(-c2[nH]c3cc(F)ccc3c2C[C@@H]2C[C@H](O)CN2C(=O)[C@H](CC)NC(=O)[C@H](C)NC)[nH]c2cc(F)ccc12 [Birinapant]
Outline: as §1

Nilotinib = compound: Cc1cn(-c2cc(NC(=O)c3ccc(C)c(Nc4nccc(-c5cccnc5)n4)c3)cc(C(F)(F)F)c2)cn1 [Nilotinib]
Outline: as §1

primary AML patient cells (S027)
viability (ONO-4059; 0.0016 µM): 0.958
viability (ONO-4059; 0.008 µM): 1.06
viability (ONO-4059; 0.04 µM): 0.945
viability (ONO-4059; 0.2 µM): 0.943
viability (ONO-4059; 1 µM): 1.01
viability (Ribociclib; 0.024 µM): 1.02
viability (Ribociclib; 0.12 µM): 1.03
viability (Ribociclib; 0.6 µM): 1.03
viability (Ribociclib; 3 µM): 0.938
viability (Ribociclib; 15 µM): 0.832
viability (Tozasertib; 0.024 µM): 1.01
viability (Tozasertib; 0.12 µM): 0.906
viability (Tozasertib; 0.6 µM): 0.93
viability (Tozasertib; 3 µM): 0.881
viability (Imatinib; 0.016 µM): 1.17
viability (Imatinib; 0.08 µM): 1.17
viability (Imatinib; 0.4 µM): 1.18
viability (Imatinib; 10 µM): 1.05

primary DLBCL patient cells (S076)
viability (Pralatrexate; 0.024 µM): 1.01
viability (Pralatrexate; 0.12 µM): 0.756
viability (Pralatrexate; 0.6 µM): 0.838
viability (Pralatrexate; 3 µM): 0.978
viability (Pralatrexate; 15 µM): 0.843
viability (ONO-4059; 0.0016 µM): 1.03
viability (ONO-4059; 0.008 µM): 1.04
viability (ONO-4059; 0.04 µM): 1.08
viability (ONO-4059; 0.2 µM): 0.992
viability (ONO-4059; 1 µM): 0.929
viability ([1]; 0.024 µM): 1.05
viability ([1]; 0.12 µM): 0.81
viability ([1]; 0.6 µM): 0.628
viability ([1]; 3 µM): 0.313
viability ([1]; 15 µM): 0.119
viability (Vemurafenib; 0.024 µM): 0.8
viability (Vemurafenib; 0.12 µM): 0.988
viability (Vemurafenib; 0.6 µM): 0.83
viability (Vemurafenib; 3 µM): 1.04
viability (Vemurafenib; 15 µM): 1.05
viability (ERK5-IN-1; 0.024 µM): 1.09
viability (ERK5-IN-1; 0.12 µM): 1
viability (ERK5-IN-1; 0.6 µM): 0.876
viability (ERK5-IN-1; 3 µM): 0.755
viability (ERK5-IN-1; 15 µM): 0.436
viability (BI6727; 0.024 µM): 1.07
viability (BI6727; 0.12 µM): 0.971
viability (BI6727; 0.6 µM): 0.881
viability (BI6727; 3 µM): 0.614
viability (BI6727; 15 µM): 0.372
viability (Vincristine; 0.016 µM): 0.726
viability (Vincristine; 0.08 µM): 0.561
viability (Vincristine; 0.4 µM): 0.519
viability (Vincristine; 2 µM): 0.44
viability (Vincristine; 10 µM): 0.363
viability (Ribociclib; 0.024 µM): 1.25
viability (Ribociclib; 0.12 µM): 1.2
viability (Ribociclib; 0.6 µM): 1.11
viability (Ribociclib; 3 µM): 0.986
viability (Ribociclib; 15 µM): 0.586
viability (Obatoclax mesylate; 0.024 µM): 0.922
viability (Obatoclax mesylate; 0.12 µM): 1.14
viability (Obatoclax mesylate; 0.6 µM): 0.746
viability (Obatoclax mesylate; 3 µM): 0.541
viability (Obatoclax mesylate; 15 µM): 0.173
viability (MLN-120B; 0.024 µM): 1.07
viability (MLN-120B; 0.12 µM): 1.07
viability (MLN-120B; 0.6 µM): 1.05
viability (MLN-120B; 3 µM): 0.997
viability (MLN-120B; 15 µM): 0.861
viability (Panobinostat; 0.00064 µM): 1.05
viability (Panobinostat; 0.0032 µM): 0.78
viability (Panobinostat; 0.016 µM): 0.285
viability (Panobinostat; 0.08 µM): 0.203
viability (Panobinostat; 0.4 µM): 0.169
viability (AZD7762; 0.024 µM): 0.679
viability (AZD7762; 0.12 µM): 0.69
viability (AZD7762; 0.6 µM): 0.55
viability (AZD7762; 3 µM): 0.481
viability (AZD7762; 15 µM): 0.348
viability (Cladribine; 0.024 µM): 0.475
viability (Cladribine; 0.12 µM): 0.331
viability (Cladribine; 0.6 µM): 0.138
viability (Cladribine; 3 µM): 0.0919
viability (Cladribine; 15 µM): 0.0759
viability (Vorinostat; 0.016 µM): 1
viability (Vorinostat; 0.08 µM): 0.884
viability (Vorinostat; 0.4 µM): 0.734
viability (Vorinostat; 2 µM): 0.417
viability (Vorinostat; 10 µM): 0.198
viability (TMP269; 0.024 µM): 1.17
viability (TMP269; 0.12 µM): 1.07
viability (TMP269; 0.6 µM): 1.15
viability (TMP269; 3 µM): 0.94
viability (TMP269; 15 µM): 0.959
viability (Pentostatin; 0.03 µM): 1.04
viability (Pentostatin; 0.15 µM): 0.808
viability (Pentostatin; 0.75 µM): 0.824
viability (Pentostatin; 3.75 µM): 0.6
viability (Pentostatin; 18.76 µM): 0.618

primary AML patient cells (S007)
viability (ONO-4059; 0.0016 µM): 0.967
viability (ONO-4059; 0.008 µM): 0.928
viability (ONO-4059; 0.04 µM): 0.962
viability (ONO-4059; 0.2 µM): 1.03
viability (ONO-4059; 1 µM): 0.804
viability (Birinapant; 0.0008 µM): 0.866
viability (Birinapant; 0.004 µM): 0.744
viability (Birinapant; 0.02 µM): 0.573
viability (Birinapant; 0.1 µM): 0.384
viability (Birinapant; 0.5 µM): 0.321
viability (Ribociclib; 0.024 µM): 0.949
viability (Ribociclib; 0.12 µM): 0.904
viability (Ribociclib; 0.6 µM): 0.766
viability (Ribociclib; 3 µM): 0.308
viability (Obatoclax mesylate; 0.024 µM): 0.717
viability (Obatoclax mesylate; 0.12 µM): 0.684
viability (Obatoclax mesylate; 0.6 µM): 0.659
viability (Obatoclax mesylate; 3 µM): 0.254
viability (Obatoclax mesylate; 15 µM): 0.0248
viability (MLN-120B; 0.024 µM): 0.816
viability (MLN-120B; 0.12 µM): 0.781
viability (MLN-120B; 0.6 µM): 0.728
viability (MLN-120B; 3 µM): 0.605
viability (MLN-120B; 15 µM): 0.375
viability (Imatinib; 0.016 µM): 1.16
viability (Imatinib; 0.08 µM): 0.987
viability (Imatinib; 0.4 µM): 1.08
viability (Imatinib; 2 µM): 0.765
viability (Imatinib; 10 µM): 0.319
viability (Nilotinib; 0.016 µM): 1.19
viability (Nilotinib; 0.08 µM): 1.23
viability (Nilotinib; 0.4 µM): 1.24
viability (Nilotinib; 2 µM): 1.04
viability (Nilotinib; 10 µM): 1.31
